Laboratory results reported in patent publication US8697127B2, “Method for preparing microspheres and microspheres produced thereby” (Ewha University-Industry Collaboration Foundation, priority 2008, dated 2014).

How the values were obtained:
Type in all cases: physicochemical
[1] = Anastrazole encapsulation ratio of PLGA microparticles (HPLC); conditions: PLGA 7E/0.15 g + 4A 0.1 g; 60 mg of anastrazole; Ethyl formate; 6 mL of 10 M NaOH
[2] = as above; conditions: 60 mg of anastrazole
Method: Each of 7E, 4A and 2A polymers was dissolved in 4 mL of ethyl acetate. Then, 60 mg of anastrazole was dissolved to prepare a dispersed phase. The solution was added to 40 mL of 0.5% PVA aqueous solution and stirred. 5 mL of 10 M NaOH was added to the resultant o/w emulsion. After adding 40 mL of distilled water and stirring, microparticles were recovered by filtration. The microparticles were redispersed in 16 mL of 0.5% PVA aqueous solution. After adding distilled water to make 80 mL, the solution was stirred. After filtration, the microparticles were dried overnight in a vacuum dryer.
Similarly, microparticles encapsulating progesterone were prepared using ethyl formate instead of ethyl acetate and using 6 mL of 10 M NaOH.
Some of the microparticles prepared in Example <8-1> were accurately weighed and dissolved in 4 mL of tetrahydrofuran. After diluting 6 times with 50% acetonitrile, the solution was filtered using a 0.45 μm syringe filter to remove the PLGA precipitate. Some of the filtrate (20 μl) was subjected to HPLC (Shimadzu LC-20AD, Luna 5 m C18(2) column) for measurement of anastrazole concentration. Drug encapsulation ratio (%) was calculated using the equations given in Example <7-2>.

[3] = HPLC chromatogram analysis of anastrazole for decomposition or modification products; conditions: ethyl acetate/PLGA (75:25)/NaOH; encapsulated in the microparticles and then recovered; HPLC chromatograms
Method: In order to indirectly estimate whether decomposition or modification products of anastrazole are produced during the preparation of microparticles using ethyl acetate/PLGA (75:25)/NaOH as in Example <8-1>, various samples were prepared (as in Example <8-1>) and their chromatograms were analyzed.

[4] = PLGA 2A/0.25 g, Ethyl acetate, 5 mL of 10 M NaOH
[5] = PLGA 4A/0.25 g, Ethyl acetate, 5 mL of 10 M NaOH
[6] = PLGA 7E/0.15 g + 4A 0.1 g, Ethyl formate, 6 mL of 10 M NaOH
[7] = PLGA 7E/0.15 g + 4A/0.1 g, Ethyl acetate, 5 mL of 10 M NaOH

CC(C)(C#N)c1cc(Cn2cncn2)cc(C(C)(C)C#N)c1 [anastrazole]
Encapsulation ratio (%) Batch 3 [1]: 65.5% | Encapsulation ratio (%) Batch 1 [2, 4]: 78.5% | Encapsulation ratio (%) Batch 2 [2, 4]: 75.2% | Encapsulation ratio (%) Batch 3 [2, 4]: 73.7% | Encapsulation ratio (%) Batch 1 [2, 5]: 78.1% | Encapsulation ratio (%) Batch 2 [2, 5]: 74.9% | Encapsulation ratio (%) Batch 3 [2, 5]: 77.6% | Encapsulation ratio (%) Batch 1 [2, 6]: 60.8% | Encapsulation ratio (%) Batch 2 [2, 6]: 65.1% | Encapsulation ratio (%) Batch 1 [2, 7]: 75.3% | Encapsulation ratio (%) Batch 2 [2, 7]: 73.8% | Encapsulation ratio (%) Batch 3 [2, 7]: 74.7% | decomposition or modification products of anastrazole during the preparation of microparticles [3]: no decomposition or modification products of anastrazole are produced
